Source: patent US8604023B2, “1,4-benzodiazepinone compounds and their use in treating cancer” (The Regents of the University of Michigan, priority 2009, dated 2013)

Experiments:
PC-3 = test: cancer cell growth inhibition (SRB); type: cell-based, human; conditions: Prostate Cancer
NCI-H23 = test: cancer cell growth inhibition (SRB); type: cell-based, human; conditions: Non-Small Cell Lung Cancer
M14 = test: cancer cell growth inhibition (SRB); type: cell-based, human; conditions: Melanoma
MALME-3M = test: cancer cell growth inhibition (SRB); type: cell-based, human; conditions: Melanoma
HL-60(TB) = test: cancer cell growth inhibition (SRB); type: cell-based, human; conditions: Leukemia
U251 = test: cancer cell growth inhibition (SRB); type: cell-based, human; conditions: CNS Cancer
BT-549 = test: cancer cell growth inhibition (SRB); type: cell-based, human; conditions: Breast Cancer
SNB-19 = test: cancer cell growth inhibition (SRB); type: cell-based, human; conditions: CNS Cancer
786-0 = test: cancer cell growth inhibition (SRB); type: cell-based, human; conditions: Renal Cancer
OVCAR-8 = test: cancer cell growth inhibition (SRB); type: cell-based, human; conditions: Ovarian Cancer
DU-145 = test: cancer cell growth inhibition (SRB); type: cell-based, human; conditions: Prostate Cancer
SR = test: cancer cell growth inhibition (SRB); type: cell-based, human; conditions: Leukemia
EKVX = test: cancer cell growth inhibition (SRB); type: cell-based, human; conditions: Non-Small Cell Lung Cancer
HOP-62 = test: cancer cell growth inhibition (SRB); type: cell-based, human; conditions: Non-Small Cell Lung Cancer
NCI/ADR-RES = test: cancer cell growth inhibition (SRB); type: cell-based, human; conditions: Breast Cancer
CAKI-1 = test: cancer cell growth inhibition (SRB); type: cell-based, human; conditions: Renal Cancer
SK-OV-3 = test: cancer cell growth inhibition (SRB); type: cell-based, human; conditions: Ovarian Cancer
NCI-H522 = test: cancer cell growth inhibition (SRB); type: cell-based, human; conditions: Non-Small Cell Lung Cancer
SW-620 = test: cancer cell growth inhibition (SRB); type: cell-based, human; conditions: Colon Cancer
SK-MEL-28 = test: cancer cell growth inhibition (SRB); type: cell-based, human; conditions: Melanoma
OVCAR-3 = test: cancer cell growth inhibition (SRB); type: cell-based, human; conditions: Ovarian Cancer
SNB-75 = test: cancer cell growth inhibition (SRB); type: cell-based, human; conditions: CNS Cancer
RPMI-8226 = test: cancer cell growth inhibition (SRB); type: cell-based, human; conditions: Leukemia
MDA-MB-435 = test: cancer cell growth inhibition (SRB); type: cell-based, human; conditions: Breast Cancer
MCF7 = test: cancer cell growth inhibition (SRB); type: cell-based, human; conditions: Breast Cancer
UO-31 = test: cancer cell growth inhibition (SRB); type: cell-based, human; conditions: Renal Cancer
OVCAR-5 = test: cancer cell growth inhibition (SRB); type: cell-based, human; conditions: Ovarian Cancer
SN12C = test: cancer cell growth inhibition (SRB); type: cell-based, human; conditions: Renal Cancer
OVCAR-4 = test: cancer cell growth inhibition (SRB); type: cell-based, human; conditions: Ovarian Cancer
TK-10 = test: cancer cell growth inhibition (SRB); type: cell-based, human; conditions: Renal Cancer
K-562 = test: cancer cell growth inhibition (SRB); type: cell-based, human; conditions: Leukemia
CCRF-CEM = test: cancer cell growth inhibition (SRB); type: cell-based, human; conditions: Leukemia
T-47D = test: cancer cell growth inhibition (SRB); type: cell-based, human; conditions: Breast Cancer
SF-295 = test: cancer cell growth inhibition (SRB); type: cell-based, human; conditions: CNS Cancer
UACC-257 = test: cancer cell growth inhibition (SRB); type: cell-based, human; conditions: Melanoma
NCI-H460 = test: cancer cell growth inhibition (SRB); type: cell-based, human; conditions: Non-Small Cell Lung Cancer
NCI-H322M = test: cancer cell growth inhibition (SRB); type: cell-based, human; conditions: Non-Small Cell Lung Cancer
HCC-2998 = test: cancer cell growth inhibition (SRB); type: cell-based, human; conditions: Colon Cancer
KM12 = test: cancer cell growth inhibition (SRB); type: cell-based, human; conditions: Colon Cancer
MDA-MB-231/ATCC = test: cancer cell growth inhibition (SRB); type: cell-based, human; conditions: Breast Cancer
SK-MEL-5 = test: cancer cell growth inhibition (SRB); type: cell-based, human; conditions: Melanoma
SF-268 = test: cancer cell growth inhibition (SRB); type: cell-based, human; conditions: CNS Cancer
HT29 = test: cancer cell growth inhibition (SRB); type: cell-based, human; conditions: Colon Cancer
HCT-116 = test: cancer cell growth inhibition (SRB); type: cell-based, human; conditions: Colon Cancer
NCI-H226 = test: cancer cell growth inhibition (SRB); type: cell-based, human; conditions: Non-Small Cell Lung Cancer
Ramos cells = test: cytotoxicity in Ramos cells; type: cell-based; conditions: Homo sapiens
Experimental: The compounds listed in Table 5 were tested for cytotoxicity in Ramos cells. The assay was conducted as described in K. M. Johnson et al. Chemistry & Biology 2005, 12, 485-496.

RXF 393 = test: cancer cell growth inhibition (SRB); type: cell-based, human; conditions: Renal Cancer
HOP-92 = test: cancer cell growth inhibition (SRB); type: cell-based, human; conditions: Non-Small Cell Lung Cancer
A549/ATCC = test: cancer cell growth inhibition (SRB); type: cell-based, human; conditions: Non-Small Cell Lung Cancer
A498 = test: cancer cell growth inhibition (SRB); type: cell-based, human; conditions: Renal Cancer
IGROV1 = test: cancer cell growth inhibition (SRB); type: cell-based, human; conditions: Ovarian Cancer
COLO 205 = test: cancer cell growth inhibition (SRB); type: cell-based, human; conditions: Colon Cancer
SK-MEL-2 = test: cancer cell growth inhibition (SRB); type: cell-based, human; conditions: Melanoma
UACC-62 = test: cancer cell growth inhibition (SRB); type: cell-based, human; conditions: Melanoma
SF-539 = test: cancer cell growth inhibition (SRB); type: cell-based, human; conditions: CNS Cancer
MOLT-4 = test: cancer cell growth inhibition (SRB); type: cell-based, human; conditions: Leukemia
LOXIMVI = test: cancer cell growth inhibition (SRB); type: cell-based, human; conditions: Melanoma
HCT-15 = test: cancer cell growth inhibition (SRB); type: cell-based, human; conditions: Colon Cancer
HS 578T = test: cancer cell growth inhibition (SRB); type: cell-based, human; conditions: Breast Cancer
ACHN = test: cancer cell growth inhibition (SRB); type: cell-based, human; conditions: Renal Cancer

Compound: O=C1Nc2ccc(Cl)cc2C(c2ccc(N3CCNCC3)nc2)=NC1Cc1ccccc1Cl (stereo not drawn) [Compound V-23]
- growth inhibition of the cancer cells (PC-3): ++ (40%-75% growth inhibition of the cancer cells)
- growth inhibition of the cancer cells (NCI-H23): ++ (40%-75% growth inhibition of the cancer cells)
- growth inhibition of the cancer cells (M14): +++ (at least 75% growth inhibition of the cancer cells)
- growth inhibition of the cancer cells (MALME-3M): +++ (at least 75% growth inhibition of the cancer cells)
- growth inhibition of the cancer cells (HL-60(TB)): +++ (at least 75% growth inhibition of the cancer cells)
- growth inhibition of the cancer cells (U251): +++ (at least 75% growth inhibition of the cancer cells)
- growth inhibition of the cancer cells (BT-549): +++ (at least 75% growth inhibition of the cancer cells)
- growth inhibition of the cancer cells (SNB-19): ++ (40%-75% growth inhibition of the cancer cells)
- growth inhibition of the cancer cells (786-0): +++ (at least 75% growth inhibition of the cancer cells)
- growth inhibition of the cancer cells (OVCAR-8): ++ (40%-75% growth inhibition of the cancer cells)
- growth inhibition of the cancer cells (DU-145): +++ (at least 75% growth inhibition of the cancer cells)
- growth inhibition of the cancer cells (SR): ++ (40%-75% growth inhibition of the cancer cells)
- growth inhibition of the cancer cells (EKVX): +++ (at least 75% growth inhibition of the cancer cells)
- growth inhibition of the cancer cells (HOP-62): +++ (at least 75% growth inhibition of the cancer cells)
- growth inhibition of the cancer cells (NCI/ADR-RES): + (less than 40% growth inhibition of the cancer cells)
- growth inhibition of the cancer cells (CAKI-1): +++ (at least 75% growth inhibition of the cancer cells)
- growth inhibition of the cancer cells (SK-OV-3): ++ (40%-75% growth inhibition of the cancer cells)
- growth inhibition of the cancer cells (NCI-H522): +++ (at least 75% growth inhibition of the cancer cells)
- growth inhibition of the cancer cells (SW-620): +++ (at least 75% growth inhibition of the cancer cells)
- growth inhibition of the cancer cells (SK-MEL-28): +++ (at least 75% growth inhibition of the cancer cells)
- growth inhibition of the cancer cells (OVCAR-3): +++ (at least 75% growth inhibition of the cancer cells)
- growth inhibition of the cancer cells (SNB-75): ++ (40%-75% growth inhibition of the cancer cells)
- growth inhibition of the cancer cells (RPMI-8226): ++ (40%-75% growth inhibition of the cancer cells)
- growth inhibition of the cancer cells (MDA-MB-435): +++ (at least 75% growth inhibition of the cancer cells)
- growth inhibition of the cancer cells (MCF7): +++ (at least 75% growth inhibition of the cancer cells)
- growth inhibition of the cancer cells (UO-31): +++ (at least 75% growth inhibition of the cancer cells)
- growth inhibition of the cancer cells (OVCAR-5): +++ (at least 75% growth inhibition of the cancer cells)
- growth inhibition of the cancer cells (SN12C): +++ (at least 75% growth inhibition of the cancer cells)
- growth inhibition of the cancer cells (OVCAR-4): ++ (40%-75% growth inhibition of the cancer cells)
- growth inhibition of the cancer cells (TK-10): +++ (at least 75% growth inhibition of the cancer cells)
- growth inhibition of the cancer cells (K-562): +++ (at least 75% growth inhibition of the cancer cells)
- growth inhibition of the cancer cells (CCRF-CEM): ++ (40%-75% growth inhibition of the cancer cells)
- growth inhibition of the cancer cells (T-47D): ++ (40%-75% growth inhibition of the cancer cells)
- growth inhibition of the cancer cells (SF-295): +++ (at least 75% growth inhibition of the cancer cells)
- growth inhibition of the cancer cells (UACC-257): +++ (at least 75% growth inhibition of the cancer cells)
- growth inhibition of the cancer cells (NCI-H460): +++ (at least 75% growth inhibition of the cancer cells)
- growth inhibition of the cancer cells (NCI-H322M): + (less than 40% growth inhibition of the cancer cells)
- growth inhibition of the cancer cells (HCC-2998): +++ (at least 75% growth inhibition of the cancer cells)
- growth inhibition of the cancer cells (KM12): +++ (at least 75% growth inhibition of the cancer cells)
- growth inhibition of the cancer cells (MDA-MB-231/ATCC): +++ (at least 75% growth inhibition of the cancer cells)
- growth inhibition of the cancer cells (SK-MEL-5): +++ (at least 75% growth inhibition of the cancer cells)
- growth inhibition of the cancer cells (SF-268): ++ (40%-75% growth inhibition of the cancer cells)
- growth inhibition of the cancer cells (HT29): +++ (at least 75% growth inhibition of the cancer cells)
- growth inhibition of the cancer cells (HCT-116): +++ (at least 75% growth inhibition of the cancer cells)
- growth inhibition of the cancer cells (NCI-H226): + (less than 40% growth inhibition of the cancer cells)
- EC50 (Ramos cells): ≤ 5 µM
- growth inhibition of the cancer cells (RXF 393): +++ (at least 75% growth inhibition of the cancer cells)
- growth inhibition of the cancer cells (HOP-92): ++ (40%-75% growth inhibition of the cancer cells)
- growth inhibition of the cancer cells (A549/ATCC): +++ (at least 75% growth inhibition of the cancer cells)
- growth inhibition of the cancer cells (A498): + (less than 40% growth inhibition of the cancer cells)
- growth inhibition of the cancer cells (IGROV1): +++ (at least 75% growth inhibition of the cancer cells)
- growth inhibition of the cancer cells (COLO 205): ++ (40%-75% growth inhibition of the cancer cells)
- growth inhibition of the cancer cells (SK-MEL-2): ++ (40%-75% growth inhibition of the cancer cells)
- growth inhibition of the cancer cells (UACC-62): ++ (40%-75% growth inhibition of the cancer cells)
- growth inhibition of the cancer cells (SF-539): +++ (at least 75% growth inhibition of the cancer cells)
- growth inhibition of the cancer cells (MOLT-4): ++ (40%-75% growth inhibition of the cancer cells)
- growth inhibition of the cancer cells (LOXIMVI): +++ (at least 75% growth inhibition of the cancer cells)
- growth inhibition of the cancer cells (HCT-15): +++ (at least 75% growth inhibition of the cancer cells)
- growth inhibition of the cancer cells (HS 578T): ++ (40%-75% growth inhibition of the cancer cells)
- growth inhibition of the cancer cells (ACHN): +++ (at least 75% growth inhibition of the cancer cells)
